Results on two molecules are retold here after PMC3047591 (Inorganic chemistry, 2011).

The structures appear in SMILES notation.

Experiment [1] addresses T1, His93Gly sperm whale myoglobin (H93G Mb) (Physeter macrocephalus, UniProt P02185, H94G). Kind of experiment: electronic absorption and MCD spectroscopy, titration. Format: binding.
Experiment [2] addresses T1, His93Gly sperm whale myoglobin (H93G Mb). Description: electronic absorption and MCD spectroscopy of mixed CHA/Im adduct. It is filed as binding.

T1 sequence (P02185 2-154 H94G): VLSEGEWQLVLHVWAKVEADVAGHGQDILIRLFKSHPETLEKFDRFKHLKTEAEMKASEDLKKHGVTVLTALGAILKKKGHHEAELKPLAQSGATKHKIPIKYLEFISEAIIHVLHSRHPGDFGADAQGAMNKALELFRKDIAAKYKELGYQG

As for `NC1CCCCC1` [CHA, cyclohexylamine], the “electronic absorption and MCD spectroscopy, titration” value in experiment [1] is “ferric CHA-ligated H93G Mb is a six-coordinate high-spin H93G Mb derivative with the CHA amine group as the proximal donor”.

Take `c1c[nH]cn1` [Im, imidazole]: the “electronic absorption and MCD spectroscopy of mixed CHA/Im adduct” value in experiment [2] is on record as “the final spectrum is that of a nearly homogeneous Im/CHA mixed-ligand adduct”.
